Laboratory results reported in the supplement of paper PMC8149375.

Key:
Details in all cases: treatment: drug + dasatinib (fixed dose, not stated); 5 days
[1] = tested on: SN12C; test: AUC of dose-response viability curve, drug + dasatinib, normalised to DMSO (arbitrary (AUC of normalised viability)); higher = less growth inhibition
Experimental: (§1)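 Primary HTS combination arm: 8 RCC cell lines treated with 8 doses (up to 10 uM) of each library drug plus a fixed dose of dasatinib (dose not stated) for 5 days; viability read by CellTiter-Glo and normalised to DMSO. GI50 was fitted with XLfit, AUC is the area under the dose-response curve, and minimum viability is the lowest fraction of DMSO viability across doses.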

[2] = tested on: ACHN; test: as above
Experimental: as §1

[3] = tested on: TK-10; test: as above
Experimental: as §1

[4] = tested on: 786-O; test: as above
Experimental: as §1

[5] = tested on: 769-P; test: as above
Experimental: as §1

[6] = tested on: UO-31; test: as above
Experimental: as §1

[7] = tested on: CAKI-1; test: as above
Experimental: as §1

[8] = tested on: A498; test: as above
Experimental: as §1

[9] = tested on: SN12C; test: minimum viability across doses, drug + dasatinib, relative to DMSO (fraction); higher = less growth inhibition
Experimental: as §1

[10] = tested on: ACHN; test: as above
Experimental: as §1

[11] = tested on: TK-10; test: as above
Experimental: as §1

[12] = tested on: 786-O; test: as above
Experimental: as §1

[13] = tested on: 769-P; test: as above
Experimental: as §1

[14] = tested on: UO-31; test: as above
Experimental: as §1

[15] = tested on: CAKI-1; test: as above
Experimental: as §1

[16] = tested on: A498; test: as above
Experimental: as §1

[17] = tested on: SN12C; test: GI50 of drug in presence of dasatinib; higher = less potent
Experimental: as §1

[18] = tested on: ACHN; test: as above
Experimental: as §1

[19] = tested on: TK-10; test: as above
Experimental: as §1

[20] = tested on: 786-O; test: as above
Experimental: as §1

[21] = tested on: 769-P; test: as above
Experimental: as §1

[22] = tested on: UO-31; test: as above
Experimental: as §1

[23] = tested on: CAKI-1; test: as above
Experimental: as §1

[24] = tested on: A498; test: as above
Experimental: as §1

Row | SMILES | AUC of dose-response viability curve [1] | AUC of dose-response viability curve [2] | AUC of dose-response viability curve [3] | AUC of dose-response viability curve [4] | AUC of dose-response viability curve [5] | AUC of dose-response viability curve [6] | AUC of dose-response viability curve [7] | AUC of dose-response viability curve [8] | minimum viability across doses [9] | minimum viability across doses [10] | minimum viability across doses [11] | minimum viability across doses [12] | minimum viability across doses [13] | minimum viability across doses [14] | minimum viability across doses [15] | minimum viability across doses [16] | GI50 of drug [17] [µM] | GI50 of drug [18] [µM] | GI50 of drug [19] [µM] | GI50 of drug [20] [µM] | GI50 of drug [21] [µM] | GI50 of drug [22] [µM] | GI50 of drug [23] [µM] | GI50 of drug [24] [µM]
1 | CC(C)n1nc(-c2cc3cc(O)ccc3[nH]2)c2c(N)ncnc21 [PP242] + Cc1nc(Nc2ncc(C(=O)Nc3c(C)cccc3Cl)s2)cc(N2CCN(CCO)CC2)n1 [dasatinib] | 1.74 | 1.19 | 1.86 | 1.74 | 1.86 | 2.82 | 1.51 | 2.41 | 0.0689 | 0.0314 | 0.0716 | 0.00231 | 0.0492 | 0.00386 | 0.0342 | 0.152 | 0.357 | 0.0245 | 0.253 | 0.713 | 0.401 | 1.14 | 0.158 | 1.35
2 | Nc1ncnc2c1c(-c1cnc3[nH]ccc3c1)nn2C1CCCC1 [PP-121] + Cc1nc(Nc2ncc(C(=O)Nc3c(C)cccc3Cl)s2)cc(N2CCN(CCO)CC2)n1 [dasatinib] | 1.73 | 1.41 | 1.67 | 1.44 | 1.74 | 2.71 | 1.41 | 2.5 | 0.0517 | 0.0126 | 0.0102 | 0.00453 | 0.0299 | 0.00907 | 0.00718 | 0.0684 | 0.337 | 0.132 | 0.261 | 0.0738 | 0.415 | 0.896 | 0.126 | 1.27
3 | COc1ccc(COc2cc3oc(=O)c4cc(C(C)O)ccc4c3cc2OC)cc1 (configuration not stated) [Palomid 529] + Cc1nc(Nc2ncc(C(=O)Nc3c(C)cccc3Cl)s2)cc(N2CCN(CCO)CC2)n1 [dasatinib] | 2.53 | 2.1 | 2.53 | 2.05 | 2.29 | 4.61 | 2.25 | 3.49 | 0.707 | 0.539 | 0.635 | 0.324 | 0.415 | 1.17 | 0.414 | 0.857 | > 10 | > 10 | > 10 | 2.96 | 6.22 | > 10 | 5.94 | > 10
4 | Cc1ccc(Nc2nccc(N(C)c3ccc4c(C)n(C)nc4c3)n2)cc1S(N)(=O)=O.Cl [Pazopanib HCl] + Cc1nc(Nc2ncc(C(=O)Nc3c(C)cccc3Cl)s2)cc(N2CCN(CCO)CC2)n1 [dasatinib] | 2.37 | 2.13 | 2.54 | 2.29 | 2.22 | 3.27 | 1.86 | 3.16 | 0.327 | 0.175 | 0.469 | 0.277 | 0.123 | 0.248 | 0.0765 | 0.522 | 3.1 | 1.34 | 8.59 | < 0.003 | 8.32 | 8.02 | 0.925 | > 10
5 | CCOc1cc2ncc(C#N)c(Nc3ccc(F)c(Cl)c3)c2cc1NC(=O)/C=C/CN(C)C [Pelitinib (EKB-569)] + Cc1nc(Nc2ncc(C(=O)Nc3c(C)cccc3Cl)s2)cc(N2CCN(CCO)CC2)n1 [dasatinib] | 1.78 | 0.845 | 1.43 | 1.79 | 1.38 | 1.8 | 1.17 | 2.55 | 0.00631 | 0.00232 | 0.00649 | 0.00483 | 0.0321 | 0.0179 | 0.0303 | 0.0177 | 0.864 | 0.00721 | 0.0611 | 0.404 | 0.0484 | 0.216 | 0.0606 | 1.08
6 | Cl.N=C(N)NC(=N)NCCc1ccccc1 [Phenformin hydrochloride] + Cc1nc(Nc2ncc(C(=O)Nc3c(C)cccc3Cl)s2)cc(N2CCN(CCO)CC2)n1 [dasatinib] | 2.36 | 2.08 | 2.35 | 1.84 | 2.41 | 2.83 | 2.28 | 3.25 | 0.114 | 0.357 | 0.315 | 0.115 | 0.623 | 0.194 | 0.578 | 0.676 | 4.33 | 3.14 | 5.02 | 1.06 | > 10 | 4.39 | > 10 | > 10
7 | Br.Cc1ccc(C(=O)Cn2c3c(sc2=N)CCCC3)cc1 [Pifithrin-α] + Cc1nc(Nc2ncc(C(=O)Nc3c(C)cccc3Cl)s2)cc(N2CCN(CCO)CC2)n1 [dasatinib] | 2.53 | 2.03 | 2.3 | 2.26 | 2.63 | 4.02 | 2.13 | 3.57 | 0.656 | 0.391 | 0.59 | 0.535 | 0.696 | 0.998 | 0.529 | 0.901 | > 10 | 3.78 | > 10 | > 10 | > 10 | > 10 | > 10 | > 10
8 | Nc1cccc2c1C(=O)N(C1CCC(=O)NC1=O)C2=O (configuration not stated) [Pomalidomide] + Cc1nc(Nc2ncc(C(=O)Nc3c(C)cccc3Cl)s2)cc(N2CCN(CCO)CC2)n1 [dasatinib] | 2.58 | 2.15 | 2.5 | 2.67 | 2.65 | 3.3 | 2.38 | 3.27 | 0.711 | 0.542 | 0.639 | 0.617 | 0.65 | 0.868 | 0.642 | 0.857 | > 10 | > 10 | > 10 | > 10 | > 10 | > 10 | > 10 | > 10
9 | O=c1c(O)c(-c2ccc(O)c(O)c2)oc2cc(O)cc(O)c12 [Quercetin (Sophoretin)] + Cc1nc(Nc2ncc(C(=O)Nc3c(C)cccc3Cl)s2)cc(N2CCN(CCO)CC2)n1 [dasatinib] | 2.52 | 2.14 | 2.47 | 1.89 | 2.42 | 3.51 | 2.35 | 3.26 | 0.692 | 0.56 | 0.67 | 0.45 | 0.618 | 0.844 | 0.576 | 0.879 | > 10 | > 10 | > 10 | > 10 | > 10 | > 10 | > 10 | > 10
10 | CC(C)(C)c1cc(NC(=O)Nc2ccc(-c3cn4c(n3)sc3cc(OCCN5CCOCC5)ccc34)cc2)no1 [Quizartinib (AC220)] + Cc1nc(Nc2ncc(C(=O)Nc3c(C)cccc3Cl)s2)cc(N2CCN(CCO)CC2)n1 [dasatinib] | 2.29 | 1.89 | 2.54 | 2.25 | 2.19 | 3.94 | 2.02 | 2.87 | 0.627 | 0.315 | 0.622 | 0.256 | 0.432 | 0.859 | 0.378 | 0.115 | > 10 | 2.02 | > 10 | 1.56 | 2.37 | > 10 | 1.08 | 6.27
11 | COc1cc(Nc2ncc(F)c(Nc3ccc4c(n3)NC(=O)C(C)(C)O4)n2)cc(OC)c1OC [R406(free base)] + Cc1nc(Nc2ncc(C(=O)Nc3c(C)cccc3Cl)s2)cc(N2CCN(CCO)CC2)n1 [dasatinib] | 2.05 | 1.11 | 2.19 | 1.77 | 2.08 | 3.16 | 1.54 | 3.18 | 0.189 | 0.0361 | 0.348 | 0.168 | 0.13 | 0.0124 | 0.0291 | 0.591 | 1.39 | 0.032 | 1.38 | 0.571 | 1.53 | 1.61 | 0.231 | > 10
12 | COc1cc(Nc2ncc(F)c(Nc3ccc4c(n3)NC(=O)C(C)(C)O4)n2)cc(OC)c1OC.O=S(=O)(O)c1ccccc1 [R406] + Cc1nc(Nc2ncc(C(=O)Nc3c(C)cccc3Cl)s2)cc(N2CCN(CCO)CC2)n1 [dasatinib] | 2.04 | 1.71 | 2.22 | 1.91 | 2.23 | 2.12 | 1.53 | 3.28 | 0.235 | 0.0817 | 0.347 | 0.232 | 0.139 | 0.0103 | 0.0338 | 0.675 | 0.908 | 0.173 | 1.58 | 0.724 | 2.2 | 1.57 | 0.24 | > 10
13 | COc1cc(Nc2ncc(F)c(Nc3ccc4c(n3)N(COP(=O)(O)O)C(=O)C(C)(C)O4)n2)cc(OC)c1OC [R788 (Fostamatinib)] + Cc1nc(Nc2ncc(C(=O)Nc3c(C)cccc3Cl)s2)cc(N2CCN(CCO)CC2)n1 [dasatinib] | 2.02 | 1.45 | 2.16 | 1.88 | 2 | 3.58 | 1.47 | 3.69 | 0.179 | 0.04 | 0.254 | 0.199 | 0.0614 | 0.0153 | 0.00427 | 0.61 | 0.983 | 0.183 | 0.963 | 0.366 | 0.993 | 2.4 | 0.195 | > 10
